The numbers were not newly measured in patent publication US8518876B2, “Composition for long-acting peptide analogs” (Pharmaln Corporation, priority 2007, dated 2013), which cites them from elsewhere.

For the series the following is noted: cited from earlier work.

Take `NC(=O)CC[C@@H]1NC(=O)[C@H](Cc2ccccc2)NC(=O)[C@H](Cc2ccc(O)cc2)NC(=O)[C@@H](N)CSSC[C@@H](C(=O)N2CCC[C@H]2C(=O)N[C@@H](CCCN=C(N)N)C(=O)NCC(N)=O)NC(=O)[C@H](CC(N)=O)NC1=O` [vasopressin]: the half-life was 24 min.

What is called half-life is the time in which the quantity being followed falls by half.
